Marks after values point to notes of the source that are not given here.
How the values were obtained:
[1] = tested on: Colletotrichum orbiculare; test: Test B: cucumber Colletotrichum anthracnose, preventive spray on cucumber seedlings
[2] = tested on: fusarium graminearium; test: Test I: wheat head scab, preventive spray on wheat seedlings
Procedure: (the causal agent of wheat head scab) and incubated in a saturated atmosphere at 20° C. for 72 h, and then moved to a growth chamber at 22° C. for 5 days, after which disease ratings were made.

[3] = tested on: Botrytis cinerea; test: Test E: tomato botrytis, preventive spray on tomato seedlings
[4] = tested on: Erysiphe graminis f. sp. tritici; test: Test L: wheat powdery mildew, preventive spray on wheat seedlings
[5] = tested on: Plasmopara viticola; test: Test D: grape downy mildew, spray after inoculation of grape seedlings; format: in vivo
Excerpt: Upon removal, disease ratings were made. […] A dash (-) indicates no test results.

[6] = tested on: Septoria nodorum; test: Test H: wheat glum blotch, preventive spray on wheat seedlings
Procedure: (the causal agent of wheat glum blotch) and incubated in a saturated atmosphere at 20° C. for 48 h, and then moved to a growth chamber at 22° C. for 5 days, after which disease ratings were made.

[7] = tested on: Phytophthora infestans; test: whole plant or invertebrate; format: in vivo
[8] = tested on: Rhizoctonia oryzae; test: Test G: turf brown patch, preventive spray on creeping bent grass seedlings
Procedure: (the causal agent of turf brown patch) and incubated in a saturated atmosphere at 27° C. for 24 h, and then moved to a growth chamber at 27° C. for 5 days, after which disease ratings were made.

[9] = tested on: Sclerotinia sclerotiorum; test: Test C: cucumber white mold, preventive spray on cucumber seedlings
[10] = tested on: Puccinia recondita f. sp. tritici; test: Test K: wheat leaf rust, preventive spray on wheat seedlings
[11] = tested on: Septoria tritici; test: Test J: wheat leaf blotch, preventive spray on wheat seedlings; format: in vivo
Excerpt: A dash (-) indicates no test results.

[12] = tested on: Pythium aphanidermatum; test: Test A: bluegrass pythium blight, preventive spray on bluegrass seedlings
[13] = 200 ppm, 100 = 100% disease control, 0 = no control
[14] = 40 ppm (marked *), 100 = 100% disease control, 0 = no control

Structure (SMILES)	Test B disease control rating ([1]; 40 ppm (*))	Test I disease control rating ([2]; 40 ppm (*))	Test E disease control rating ([3]; 40 ppm (*))	Test L disease control rating ([4]; 40 ppm (*))	Test D disease control rating ([5]; 40 ppm (*))	Test H disease control rating ([6]; 40 ppm (*))	Test F disease control rating ([7]; 40 ppm (*))	Test G disease control rating ([8]; 40 ppm (*))	Test C disease control rating ([9]; 40 ppm (*))	Test K disease control rating ([10]; 40 ppm (*))	Test J disease control rating ([11]; 40 ppm (*))	Test A disease control rating ([12]; 40 ppm (*))	other results
CC(C)Cn1c(-c2cccc(C(F)(F)F)c2)c(Cl)nc(-n2cncn2)c1=O [compound 232]	0* %	0* %	0* %	0* %	0* %	0* %	0* %	0* %	0* %	0* %	0* %	0* %	
CC(C)Cn1c(-c2cccc(C(F)(F)F)c2)c(Cl)nc(-n2cccn2)c1=O [compound 233]	0* %	0* %	0* %	0* %	0* %	0* %	0* %	0* %	0* %	0* %	0* %	0* %	
CC(C)Cn1c(-c2cccc(Br)c2)c(Cl)nc(-n2cncn2)c1=O [compound 234]	0* %	0* %	0* %	0* %	0* %	0* %	0* %	0* %	0* %	0* %	0* %	0* %	
CC(C)Cn1c(-c2cccnc2)c(Cl)nc(-n2cncn2)c1=O [compound 235]	0* %	0* %	0* %	0* %	0* %	0* %	0* %	0* %	0* %	0* %	0* %	45* %	
CC(C)Cn1c(-c2cccnc2Cl)c(Cl)nc(-n2cncn2)c1=O [compound 236]	0* %	0* %	0* %	0* %	0* %	0* %	0* %	0* %	0* %	0* %	0* %	0* %	
CC(C)Cn1c(-c2cccnc2)c(Cl)nc(-n2cccn2)c1=O [compound 237]	0* %	0* %	0* %	0* %	0* %	0* %	0* %	0* %	0* %	0* %	24* %	0* %	
CC(CF)n1c(-c2c(F)cccc2F)c(Cl)nc(-n2cccn2)c1=O (stereo not drawn) [compound 238]	63* %	0* %	99* %	74* %	0* %	98* %	0* %	93* %	0* %	100* %	96* %	0* %	
Cc1ccn(-c2nc(Br)c(-c3c(F)cccc3F)n(CC(C)C)c2=O)n1 [compound 242]	73* %	0* %	100* %	99* %	0* %	94* %	0* %	82* %	0* %	92* %	100* %	0* %	
Cc1ccn(-c2nc(Cl)c(-c3cccc4c3OCO4)n(CC(C)C)c2=O)n1 [compound 255]													Test B disease control rating [1, 13]: 0%; Test I disease control rating [2, 13]: 0%; Test E disease control rating [3, 13]: 99%; Test L disease control rating [4, 13]: 0%; Test D disease control rating [5, 13]: 0%; Test H disease control rating [6, 13]: 0%; Test F disease control rating [7, 13]: 0%; Test G disease control rating [8, 13]: 0%; Test C disease control rating [9, 13]: 0%; Test K disease control rating [10, 13]: 61%; Test J disease control rating [11, 13]: 71%; Test A disease control rating [12, 13]: 0%
Cc1ccn(-c2nc(Cl)c(-c3ccc4c(c3)OC(F)(F)O4)n(CC(C)C)c2=O)n1 [compound 256]													Test B disease control rating [1, 13]: 0%; Test I disease control rating [2, 13]: 0%; Test E disease control rating [3, 13]: 0%; Test L disease control rating [4, 13]: 0%; Test D disease control rating [5, 13]: 0%; Test H disease control rating [6, 13]: 0%; Test F disease control rating [7, 13]: 0%; Test G disease control rating [8, 13]: 0%; Test C disease control rating [9, 13]: 0%; Test K disease control rating [10, 13]: 0%; Test J disease control rating [11, 13]: 38%; Test A disease control rating [12, 13]: 0%
Cc1ccn(-c2nc(Cl)c(-c3cc4c(cc3Cl)OCO4)n(CC(C)C)c2=O)n1 [compound 257]													Test B disease control rating [1, 13]: 0%; Test I disease control rating [2, 13]: 0%; Test E disease control rating [3, 13]: 99%; Test L disease control rating [4, 13]: 0%; Test D disease control rating [5, 13]: 0%; Test H disease control rating [6, 13]: 0%; Test F disease control rating [7, 13]: 0%; Test G disease control rating [8, 13]: 0%; Test C disease control rating [9, 13]: 0%; Test K disease control rating [10, 13]: 74%; Test J disease control rating [11, 13]: 71%; Test A disease control rating [12, 13]: 81%
Cc1cc(C)c(-c2c(Cl)nc(-n3ccc(C)n3)c(=O)n2CC(C)C)c(C)c1 [compound 258]													Test B disease control rating [1, 14]: 0* %; Test I disease control rating [2, 14]: 0* %; Test E disease control rating [3, 14]: 59* %; Test L disease control rating [4, 14]: 0* %; Test D disease control rating [5, 14]: 0* %; Test H disease control rating [6, 14]: 0* %; Test F disease control rating [7, 14]: 0* %; Test G disease control rating [8, 14]: 0* %; Test C disease control rating [9, 14]: 49* %; Test K disease control rating [10, 14]: 41* %; Test J disease control rating [11, 14]: 82* %; Test A disease control rating [12, 14]: 0* %
CCCCn1c(-c2ccc(F)cc2Cl)c(Cl)nc(-n2ccc(C)n2)c1=O [compound 265]													Test B disease control rating [1, 14]: 90* %; Test I disease control rating [2, 14]: 0* %; Test E disease control rating [3, 14]: 100* %; Test L disease control rating [4, 14]: 91* %; Test D disease control rating [5, 14]: 0* %; Test H disease control rating [6, 14]: 95* %; Test F disease control rating [7, 14]: 0* %; Test G disease control rating [8, 14]: 50* %; Test C disease control rating [9, 14]: 0* %; Test K disease control rating [10, 14]: 94* %; Test J disease control rating [11, 14]: 100* %; Test A disease control rating [12, 14]: 0* %
